According to US20230320345A1, “METHODS AND COMPOSITIONS FOR INHIBITING ICE RECRYSTALLIZATION” (UNIVERSITY OF TENNESSEE RESEARCH FOUNDATION, priority 2022, published 2023):
Where “and” joins values, the source holds several entries; their conditions need not be identical. Equal entries are not always repeated. Entries after “also recorded” stand apart in the source; their conditions may differ.

Columns and labels:
[1] = Ice recrystallization inhibition (IRI) "splat" assay; details: for IRI activity: splat assay, 30 min incubation at -8° C., 12.5-100 mM; for %MLGS compared with PEG: at 40 mg/mL
Protocol: Ice recrystallization inhibition (IRI) activity of bile salts. NaC, NaDC, NaCC, and NaLC were tested for IRI activity at concentrations of 12.5, 25.0, 50.0, and 100 mM in 1x PBS using the “splat” assay test known and described in Knight, C. A.; Hallett, J.; Devries, A. L., “Solute effects on ice recrystallization: An assessment technique,” Cryobiology 1988, 25 (1), 55-60, which is incorporated herein by reference. 100 mM NaLC was not tested due to its gelation. A droplet of the sample was gently squeezed out of a syringe with a 21-gauge needle from Exelint, Redondo Beach, CA, and was dripped from 1.4 m above onto a microscope slide sitting on a metal block surrounded by dry ice. Upon hitting the slide surface, the droplet instantaneously froze into an ice wafer. The ice wafer was immediately transferred into the chamber of a cryostage system from Instec, Boulder, CO, for incubation. Pictures were taken after 30 min incubation at -8° C. by a BX51 polarized microscope from Olympus, Tokyo, Japan, equipped with a DP70 camera from Olympus. PEG was tested as a negative control at concentrations of 5, 10, 20, and 40 mg/mL in 1x PBS to match the mass concentrations (w/v) of bile salts. PVA was tested as a positive control at low concentrations, including 0.05, 0.10, 0.20, and 0.40 mg/mL in 1x PBS, because of its high IRI activity. The largest lengths of the five largest ice crystals in one picture were measured by Image J software from National Institutes of Health, Bethesda, MD. Each sample was performed in triplicate. Each replication had five pictures randomly selected, representing a total of 75 ice crystals for each sample. The percent mean largest grain size (%MLGS) was calculated by averaging three replications divided by the blank. Data are reported as the mean ± standard derivation of three replications. The %MLGS calculations are plotted in FIG. 3 against the concentrations of the bile acids and the controls.

[2] = Optical photos of bile salt solutions as a function of temperature, with crossed polarized filters; assay type: physicochemical; details: 25 mM in PBS; for liquid crystal phase: all temperatures, crossed polarized filter; for appearance of solution: temperatures from 90° C. to -15° C.
Protocol: (§1) Viscosity profiles, critical micelle concentration (CMC), and optical photos of bile salts. The critical micelle concentration of a colloid or surfactant is the concentration of surfactant above which micelles form, and any additional surfactant added to the system will form micelles. The viscosity profile of NaC, NaDC, NaCC, and NaLC at a concentration of 25 mM in 1x PBS were determined by an AR2000 rheometer from TA Instruments in New Castle, PA, with a 40 mm aluminum parallel plate at 25° C. The samples were measured from 0.1 to100 s^-1 shear rate after pre-shearing at 50 s^-1 for 30 seconds with or without an equilibrium time of 30 min. The CMCs were determined by a UV-vis spectroscopy method with slight modifications described in Reis, S.; Moutinho, C. G.; Matos, C.; de Castro, B.; Gameiro, P.; Lima, J. L., “Noninvasive methods to determine the critical micelle concentration of some bile acid salts,” Anal Biochem 2004, 334 (1), 117-26, which is incorporated herein by reference. NaC, NaDC, and NaCC were dissolved in water at concentrations from 1 to 25 mM. The absorbance spectra from 200 to 300 nm were collected by an Evolution 201 spectrometer from Thermo Scientific, Waltham, MA to find the peak absorbance. The CMC was determined from the sudden change of peak absorbance as concentration increases. The optical photos of bile salt in 1X PBS solutions were taken after incubation at each designed temperature for 20 minutes.

[3] = Atomic force microscopy (AFM) analysis of bile salt solutions; assay type: physicochemical; details: 25 mM sample, dried on mica
Protocol: Atomic force microscopy (AFM) analysis of bile salt solutions. The AFM procedure was followed as set forth in Schefer, L.; Adamcik, J.; Diener, M.; Mezzenga, R., “Supramolecular chiral self-assembly and supercoiling behavior of carrageenans at varying salt conditions,” Nanoscale 2015, 7 (39), 16182-16188, which is incorporated herein by reference. Briefly, 0.01% (v/v) APTES in water was incubated on a freshly peeled mica surface for 1 min. APTES solution was then washed away using water on a P6700 spin coater from Specialty Coating Systems Inc., Indianapolis, IN, at 2,000 rpm. About 200 µL of 25 mM sample was loaded on the mica surface and incubated for 30 seconds. Then the mica was rinsed with 1.0 mL water drop-wise and dried in a vacuum chamber at room temperature. All mica surfaces were observed by a Multimode VIII AFM from Bruker, Santa Barbara, USA, in ScanAsyst-Air mode. All images were flattened using Nanoscope Analysis software from Bruker, Santa Barbara, USA, before analyzing by an ImageJ instrument from National Institutes of Health, Bethesda, MD.

[4] = Ice recrystallization inhibition (IRI) "splat" assay; details: concentrations close to or below literature CMC value, PBS (FIG. 6D)
[5] = Ice growth kinetics of NaLC; details: 1x PBS, -8° C., up to 60 min
Protocol: Ice growth kinetics of NaLC. The ice growth kinetics in the presence of NaLC at 12.5, 25, and 50 mM was determined at -8° C. in 1x PBS. Five pictures were taken every 5 min for a total time of 60 min. %MLGS at each time was calculated against its blank control at the same time.

[6] = Viscosity profile by rheometer / gel formation; assay type: physicochemical; details: for viscosity: 25 mM in 1x PBS, 25° C.
Protocol: as §1

| helical structure by AFM [3] | helix length [3] [µm] | helix turn [3] [µm] | helix width [3] [µm] | gel formation ([6]; 100 mM, after sample preparation) | viscosity ([6]; fresh-prepared) | Compound | IRI activity ([1]; 1x PBS) | temperature at which ices were formed [2] [°C] | liquid crystal phase [2] | appearance of solution [2] | %MLGS compared with PEG ([1]; 1x PBS, 30 min at -8° C.) | IRI activity (%MLGS) [4] | ice growth ([5]; 12.5 mM) | ice growth ([5]; 25.0 mM) | ice growth ([5]; 50.0 mM) | ice crystal size compared to blank 1x PBS and negative control PEG ([1]; 10 mg/mL (25 mM), 30 min at -8° C.) | ice crystal sizes compared with positive control PVA ([1]; 10 mg/mL NaLC, 1x PBS, 30 min at -8° C.) | concentration at which IRI active ([1]; 1x PBS, 30 min at -8° C.) | viscosity ([6]; after 30-min equilibrium) |
| --- | --- | --- | --- | --- | --- | --- | --- | --- | --- | --- | --- | --- | --- | --- | --- | --- | --- | --- | --- |
|  |  |  |  |  |  | C[C@H](CCC(=O)[O-])[C@H]1CC[C@H]2[C@@H]3[C@H](O)C[C@@H]4C[C@H](O)CC[C@]4(C)[C@H]3C[C@H](O)[C@]12C.[Na+] [NaC, sodium cholate] | not IRI active | -15 | no liquid crystal phase was observed | clear |  |  |  |  |  |  |  |  |  |
|  |  |  |  |  |  | C[C@H](CCC(=O)[O-])[C@H]1CC[C@H]2[C@@H]3[C@H](O)C[C@@H]4C[C@H](O)CC[C@]4(C)[C@H]3CC[C@]12C.[Na+] [NaCC, sodium chenodeoxycholate] | weak ice recrystallization inhibitor | -15 | no liquid crystal phase was observed | clear | smaller %MLGS values than PEG |  |  |  |  |  |  |  |  |
| helical structure | 1.72 ± 0.37 | 0.19 ± 0.04 | 0.14 ± 0.01 | gel was formed | highest viscosity among four bile salts | C[C@H](CCC(=O)[O-])[C@H]1CC[C@H]2[C@@H]3CC[C@@H]4C[C@H](O)CC[C@]4(C)[C@H]3CC[C@]12C.[Na+] [NaLC, sodium lithocholate] | relatively potent IRI; also recorded: most potent ice recrystallization inhibitor |  |  | turbid |  | No IRI activity was observed | IRI active but did not stop the ice growth completely | completely stopped the growth of ice crystals; also recorded: block the growth of ice crystals | completely stopped the growth of ice crystals | significantly smaller ice crystals | comparable to those in the positive control of 1 mg/mL PVA | around 10 mg/mL and ~25 mM |  |
|  |  |  |  |  |  | sodium deoxycholate [NaDC] | weak ice recrystallization inhibitors |  |  | clear | smaller %MLGS values than PEG |  |  |  |  |  |  |  | increased significantly to a level similar to that of NaLC |
